The nature of data set [1]: Selectivity index, ratio of CC50 for cytotoxicity against human HepG2 cell to IC50 for antimalarial activity against Plasmodium falciparum 3D7 infected in red blood cells. Type of data set: toxicity, cell-based. The settings on record: read-out: Ratio CC50/IC50.
In data set [2] the test system is Plasmodium falciparum. As to the kind of experiment: Antimalarial activity against chloroquine-resistant Plasmodium falciparum Dd2 infected in red blood cells after 96 hrs by SYBR Green I dye based fluorescence assay. Type of data set: functional, organism-based, Red blood cell. The settings on record: Dd2, Erythrocyte.
For data set [3], the target named is T1, Dihydroorotate dehydrogenase (quinone), mitochondrial (Plasmodium falciparum (isolate 3D7)) (UniProt Q08210).
T1 sequence (whole entry): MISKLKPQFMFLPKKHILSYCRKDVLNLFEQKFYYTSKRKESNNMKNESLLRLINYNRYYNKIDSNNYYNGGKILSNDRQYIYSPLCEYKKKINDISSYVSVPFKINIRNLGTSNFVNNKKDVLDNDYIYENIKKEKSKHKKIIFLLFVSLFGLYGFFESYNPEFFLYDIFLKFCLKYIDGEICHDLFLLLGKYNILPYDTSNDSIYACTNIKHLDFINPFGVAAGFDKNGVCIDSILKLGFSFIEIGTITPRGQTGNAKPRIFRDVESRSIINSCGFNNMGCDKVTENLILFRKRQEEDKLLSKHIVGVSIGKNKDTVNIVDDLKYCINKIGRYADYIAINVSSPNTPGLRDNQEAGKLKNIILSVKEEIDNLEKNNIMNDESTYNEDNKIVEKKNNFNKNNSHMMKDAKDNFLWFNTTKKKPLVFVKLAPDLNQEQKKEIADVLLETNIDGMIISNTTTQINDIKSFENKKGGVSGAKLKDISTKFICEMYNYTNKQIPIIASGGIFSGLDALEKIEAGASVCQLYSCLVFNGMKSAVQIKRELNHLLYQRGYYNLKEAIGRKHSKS
Description: Inhibition of Plasmodium falciparum DHODH at 250 uM relative to control.

Data set [4] concerns Plasmodium falciparum. As to the kind of experiment: Antimalarial activity against Plasmodium falciparum 3D7 infected in red blood cells after 96 hrs by SYBR Green I dye based fluorescence assay. The class given is functional, organism-based, Red blood cell. The conditions noted are these: 3D7, Erythrocyte.
Data set [5] can be described thus: Selectivity index, ratio of CC50 for cytotoxicity against human HepG2 cell to IC50 for antimalarial activity against chloroquine-resistant Plasmodium falciparum Dd2 infected in red blood cells. The settings on record: read-out: Ratio CC50/IC50. Type of data set: toxicity, cell-based.
Data set [6] can be described thus: Cytotoxicity against human HepG2 cells assessed as reduction in cell viability after 48 hrs by WST-1 assay. The class given is toxicity, cell-based.
The target in data set [7] is T1, Dihydroorotate dehydrogenase (quinone), mitochondrial (Plasmodium falciparum (isolate 3D7)). As to the kind of experiment: Inhibition of Plasmodium falciparum DHODH.

Calls of active or inactive are those of the source. The calls are words filed in the database; no cut-off is given here.

This is an account of results in ChEMBL document CHEMBL5579847, “Synthesis, design, and optimization of a potent and selective series of pyridylpiperazines as promising antimalarial agents” (Eur J Med Chem, 2024).

For `Cc1ccccc1N1CCN(c2ccc(C(=O)NC3CC3)cn2)CC1`, the figures for the selectivity ratio in data set [1] and in data set [5] were more than 100 and more than 143, respectively. Besides, the half-maximal inhibitory concentration (IC50) worked out at 0.7 µM with Plasmodium falciparum [2] and 1 µM with Plasmodium falciparum [4]. The inhibition in data set [3] was 30%. The half-maximal cytotoxic concentration (CC50) at 48 h in data set [6] was more than 100 µM.

As for `O=C(NC1CC1)c1ccc(N2CCN(c3ncccn3)CC2)nc1`, the IC50 in the data set with Plasmodium falciparum [2] stood at 10.5 µM; in the data set on Plasmodium falciparum [4], 5.6 µM.

For the molecule `O=C(NC1CC1)c1ccc(N2CCN(c3ncccc3C(F)(F)F)CC2)nc1`, the figures for the selectivity ratio in data set [1] and in data set [5] were more than 96 and more than 23, respectively. Moreover, the half-maximal inhibitory concentration (IC50) in the data set with Plasmodium falciparum [2] was found to be 4.4 µM; in the data set on Plasmodium falciparum [4], 1 µM. Besides, the inhibition entry in data set [7] is “inactive”. Moreover, the CC50 at 48 h in data set [6] was more than 100 µM.

`O=C(NC1CC1)c1ccc(N2CCN(c3ccccn3)CC2)nc1`: in data set [1], the selectivity ratio was more than 7. Also, the IC50 in the data set with Plasmodium falciparum [4] came out at 13.9 µM. In addition, in data set [6], the CC50 at 48 h was more than 100 µM.

As for `N#Cc1cccnc1N1CCN(c2ccc(C(=O)NC3CC3)cn2)CC1`, the selectivity ratio in data set [1] is more than 15; in data set [5], more than 7. In addition, the IC50 with Plasmodium falciparum [2] was 15 µM; with Plasmodium falciparum [4], 6.7 µM. In data set [6], the half-maximal cytotoxic concentration (CC50) at 48 h was more than 100 µM.

For the molecule `O=C(NC1CC1)c1ccc(N2CCN(c3ccccc3C(F)(F)F)CC2)nc1`, the selectivity ratio is more than 59 in data set [1] and more than 200 in data set [5]. Moreover, the figures for the IC50 with Plasmodium falciparum [2] and in the data set with Plasmodium falciparum [4] were 0.5 µM and 1.7 µM, respectively. The molecule further returned an inhibition in data set [3] of 20%. For the same molecule, the inhibition result in data set [7] was “inactive”. Moreover, the CC50 at 48 h in data set [6] is more than 100 µM.

Regarding `O=C(NC1CC1)c1ccc(N2CCN(c3ccccc3)CC2)nc1`, the selectivity ratio is more than 21 in data set [1] and more than 30 in data set [5]. Further, the half-maximal inhibitory concentration (IC50) was 3.3 µM in the data set with Plasmodium falciparum [2] and 6 µM with Plasmodium falciparum [4]. Besides, the CC50 at 48 h in data set [6] is more than 100 µM.

Turning to `O=C(NC1CC1)c1ccc(N2CCN(c3ccccc3Cl)CC2)nc1`, the 50% inhibitory concentration (IC50) in the data set on Plasmodium falciparum [2] is 0.7 µM; with Plasmodium falciparum [4], 0.4 µM.

For `O=C(NC1CC1)c1ccc(N2CCN(c3cnccn3)CC2)nc1`, the values for the selectivity ratio in data set [1] and in data set [5] were more than 36 and more than 28, respectively. In addition, the concentration for half-maximal inhibition (IC50) in the data set on Plasmodium falciparum [2] worked out at 3.6 µM; in the data set with Plasmodium falciparum [4], 2.8 µM. Moreover, the inhibition result in data set [7] is “inactive”. The cytotoxic concentration (CC50) at 48 h in data set [6] is more than 100 µM.

`O=C(NC1CC1)c1ccc(N2CCNCC2)nc1`: the IC50 in the data set on Plasmodium falciparum [4] was more than 100 µM.

Consider `O=C(NC1CC1)c1ccc(N2CCN(c3ncccc3[N+](=O)[O-])CC2)nc1`, for which the selectivity ratio is 9 in data set [1] and 5 in data set [5]. Further, the figures for the half-maximal inhibitory concentration (IC50) with Plasmodium falciparum [2] and in the data set on Plasmodium falciparum [4] were 10.2 µM and 5.7 µM, respectively. Further, in data set [6], the cytotoxic concentration (CC50) at 48 h amounted to 51.2 µM.

For the molecule `O=C(NC1CC1)c1ccc(N2CCN(c3ccccc3F)CC2)nc1`, the IC50 with Plasmodium falciparum [2] amounted to 2.3 µM; with Plasmodium falciparum [4], 1.3 µM. Moreover, in data set [7], the inhibition result is “inactive”.

Regarding `O=C(NC1CC1)c1ccc(N2CCN(c3ccc(C(F)(F)F)cn3)CC2)nc1`, the values for the IC50 with Plasmodium falciparum [2] and in the data set on Plasmodium falciparum [4] were 1.6 µM and 1.1 µM, respectively.

Consider `COc1ccc(N2CCN(c3ccc(C(=O)NC4CC4)cn3)CC2)cc1`, for which the IC50 in the data set on Plasmodium falciparum [2] stood at 9.4 µM; in the data set on Plasmodium falciparum [4], 2.9 µM.

Turning to `COc1ccc(CN2CCN(c3ccc(C(=O)NC4CC4)cn3)CC2)cc1`, the selectivity ratio was more than 15 in data set [1] and more than 8 in data set [5]. In addition, the IC50 was 13 µM in the data set on Plasmodium falciparum [2] and 6.5 µM in the data set on Plasmodium falciparum [4]. For the same molecule, the CC50 at 48 h in data set [6] is more than 100 µM.

For `O=C(NC1CC1)c1ccc(N2CCN(c3cccc(O)c3)CC2)nc1`, the selectivity ratio in data set [1] turned out to be 9; in data set [5], 5. Besides, the figures for the half-inhibitory concentration (IC50) with Plasmodium falciparum [2] and with Plasmodium falciparum [4] were 7.3 µM and 4.1 µM, respectively. Further, the CC50 at 48 h in data set [6] is 36.2 µM.

As to `Nc1cccnc1N1CCN(c2ccc(C(=O)NC3CC3)cn2)CC1`, the midpoint of inhibition in the data set with Plasmodium falciparum [4], the IC50, lay at 46.4 µM.

For the molecule `CCN(CC)CCCC(C)Nc1ccnc2cc(Cl)ccc12` (stereo unspecified) [CHLOROQUINE], the IC50 with Plasmodium falciparum [4] stood at 10.2 µM.

Molecule `O=C(NC1CC1)c1ccc(N2CCN(C(=O)c3ccccn3)CC2)nc1` came in with a half-maximal inhibitory concentration (IC50) in the data set on Plasmodium falciparum [4] of more than 100 µM.

For the molecule `CN1CCN(c2ccc(C(=O)NC3CC3)cn2)CC1`, in the data set with Plasmodium falciparum [4], the IC50 was more than 100 µM.

In the case of `O=C(NC1CC1)c1ccc(N2CCN(Cc3ccccc3)CC2)nc1`, the selectivity ratio in data set [1] is 1; in data set [5], 2. Further, the IC50 was 6.1 µM in the data set with Plasmodium falciparum [2] and 10.9 µM in the data set on Plasmodium falciparum [4]. The 50% cytotoxic concentration (CC50) at 48 h in data set [6] amounted to 12.1 µM.

Take `O=C(NC1CC1)c1ccc(N2CCN(S(=O)(=O)c3ccccc3)CC2)nc1`: in the data set on Plasmodium falciparum [4], the IC50 was 37.2 µM.

For `O=C(NC1CC1)c1ccc(N2CCN(C(=O)c3ccccc3)CC2)nc1`, the half-maximal inhibitory concentration (IC50) in the data set with Plasmodium falciparum [4] was more than 100 µM.
